# Assay results reported in patent US20260124311A1, “POLYMER-DRUG CONJUGATES FOR STING PATHWAY ACTIVATION” (Vanderbilt University, priority 2022, published 2026).
# Assays:
# IRF and NF-kb pathway = experiment: THP-1 Dual reporter assay of IRF and NF-kb pathway activation; assay type: cell-based, human; conditions: FIG. 19A-B
# Method: Activation of STING. THP1-Dual cells (InvivoGen) were cultured in Roswell Park Memorial Institute (RPMI) 1640 Medium (Gibco) supplemented with 2 mM L-glutamine, 25 mM HEPES, 10% heat-inactivated fetal bovine serum (HI-FBS; Gibco), 100 U mL^−1, penicillin/100 μg mL^−1, streptomycin (Gibco), and 100 μg/mL Normocin. Cells were subjected to 10 μg/mL Blasticidin and 100 μg/mL Zeocin for continual selection after every cell passage. 96-well plates (REF 655180; Greiner Bio-One) were used for screening agonist activity. Reporter cells were seeded at 25,000 cells/well in 100 μL media and treatments were administered in 100 μL of medium. Results were collected 24 hours after treatment using a Quanti-Luc™ (InvivoGen) assay on cell supernatants following manufacturer's instructions. Luminescence was quantified using a plate reader (Synergy H1 Multi-Mode Microplate Reader; Biotek) after supernatants were transferred to opaque-bottom 96-well plates (REF 655073; Greiner Bio-One).
# [1] = tested on: STING knockout THP1 Dual cell line; experiment: STING knockout THP1 Dual cell line reporter assay; assay type: cell-based, human; conditions: FIG. 19C-D
# [2] = tested on: Interferon-β, CXCL10, TNF, IL-6; experiment: PCR analysis of kinetics of STING-mediated gene expression; assay type: cell-based
# [3] = tested on: GFP-STING expressing murine embryonic fibroblasts; conditions: FIG. 21
substance,measurement,setting,value
diABZI(CTA)-DMA-50k [50 kDa diABZI-DMA (33)],IRF and NF-kb pathway activation,IRF and NF-kb pathway,both signaling pathways are engaged
same,IRF and NF-κβ responses in STING knockout cells,[1],lack of activity
same,time to activation of STING signaling after endocytosis,[2],≤ 2 h
same,"STING activation dynamics (STING-puncta, confocal)",[3],delayed STING activation
